Measured values published in patent US20040241114A1, “Hair Care and Nail Care Compositions Based on Ion-Pair Delivery System for Gender and Ethnic Selective Applications” (priority 2003, published 2004).

How the values were obtained:
Type in all cases: physicochemical
[1] = pH of 1% water solution
[2] = Stability of water solution
[3] = Solubility in water
Source text: The ion-pair compositions thus formed are not just physical mixtures of the two compositions that are combined in an ion-pair mode to form such ion-pair compositions. Such ion-pair compositions are discreet chemical entities. For example, the combination of niacinamide with N-Acetyl-Cysteine results in the formation of ion-pair complex, Niacinamide N-Acetyl Cysteinate. […] Niacinamide N-Acetyl-Cysteinate, the ion-pair that is produced from the combination of the above two compositions is a new ingredient properties of which are very different from that of the above two compositions, which shall be described elsewhere.

| SMILES | pH of 1% water solution [1] | stability of water solution [2] | solubility in water [3] |
| --- | --- | --- | --- |
| NC(=O)c1cccnc1 [niacinamide] | 6.3 | good | 50% |
| CC(=O)N[C@@H](CS)C(=O)O [N-Acetyl-Cysteine] | 3.5 | poor | > 20% |
